CC(=O)Nc1ccc(O)cc1
Settings	solubility (mole fraction)
in ethanol, 284.49 K	0.0444
in ethanol, 288.38 K	0.0471
in ethanol, 293.54 K	0.0508
in ethanol, 295.69 K	0.0539
in isopropanol, 273.5 K	0.0256
in isopropanol, 289.99 K	0.0372
in isopropanol, 302.5 K	0.0473
in n-octanol, 262.78 K	0.0057
in n-octanol, 275.42 K	0.0082
in n-octanol, 285.72 K	0.0104
in n-octanol, 301.15 K	0.0151

CC(=O)Oc1ccccc1C(=O)O
Settings	solubility (mole fraction)
in ethanol, 274.95 K	0.0246
in ethanol, 292.45 K	0.0487
in isopropanol, 274.9 K	0.0163
in isopropanol, 281.7 K	0.0223
in isopropanol, 283.75 K	0.0245
in n-octanol, 272.14 K	0.01
in n-octanol, 281.45 K	0.0152
in n-octanol, 291.53 K	0.0235
in n-octanol, 307.12 K	0.0434

CN=C(NC#N)NCCSCc1nc[nH]c1C
solubility (mole fraction)
Settings	281.04 K	285.25 K	289.65 K	292.46 K	296.7 K	297.26 K	306.76 K	309.1 K	311.34 K
in ethanol	–	–	–	–	–	0.005	0.0081	0.0091	0.0101
in methanol	0.0082	0.0098	0.0119	0.0138	0.0166	–	–	–	–

From BigSolDB 2.1
